Test results from patent US20080214621A1, “Cycloalkyl Lactam Derivatives As Inhibitors Of 11-Beta-Hydroxysteroid Dehydrogenase 1” (priority 2004, published 2008).

These molecules were tested against Human 11β-HSD type 1 (Homo sapiens, UniProt P28845) (assay: 11β-HSD type 1 enzyme assay (NADPH production by fluorescence)). Conditions: recombinant human 11β-HSD type 1 enzyme, cortisol/NADP substrate, three hour incubation at room temperature.
Sequence of Human 11β-HSD type 1 (P28845 whole entry): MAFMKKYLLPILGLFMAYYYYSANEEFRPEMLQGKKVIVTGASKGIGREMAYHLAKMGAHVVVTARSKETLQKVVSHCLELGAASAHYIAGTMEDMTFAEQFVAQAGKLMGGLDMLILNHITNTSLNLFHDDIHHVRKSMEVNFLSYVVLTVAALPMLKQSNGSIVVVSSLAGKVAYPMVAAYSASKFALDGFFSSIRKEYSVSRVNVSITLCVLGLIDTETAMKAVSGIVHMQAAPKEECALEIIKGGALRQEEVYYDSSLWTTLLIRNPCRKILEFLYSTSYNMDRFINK
Assay type: biochemical
Procedure: Human 11β-HSD type 1 activity is measured by assaying NADPH production by fluorescence assay. Solid compounds are dissolved in DMSO to a concentration of 10 mM. Twenty microliters of each are then transferred to a column of a 96-well polypropylene Nunc plate where they are further diluted 50-fold followed by subsequent two-fold titration, ten times across the plate with additional DMSO using a Tecan Genesis 200 automated system. Plates are then transferred to a Tecan Freedom 200 system with an attached Tecan Temo 96-well head and an Ultra 384 plate reader. Reagents are supplied in 96-well polypropylene Nunc plates and are dispensed individually into black 96-well Molecular Devices High Efficiency assay plates (40 μL/well capacity) in the following fashion: 9 μL/well of substrate (2.22 mM NADP, 55.5 μM Cortisol, 10 mM Tris, 0.25% Prionex, 0.1% Triton X100), 3 μL/well of water to compound wells or 3 μL to control and standard wells, 6 μL/well recombinant human 11β-HSD type 1 enzyme, 2 μL/well of compound dilutions. […] Final DMSO concentration is 0.5% for all compounds, controls and standards. Plates are then placed on a shaker by the robotic arm of the Tecan for 15 seconds before being covered and stacked for a three hour incubation period at room temperature. Upon completion of this incubation, the Tecan robotic arm removes each plate individually from the stacker and places them in position for addition of 5 μL/well of a 250 μM carbenoxolone solution to stop the enzymatic reaction. Plates are then shaken once more for 15 seconds then placed into an Ultra 384 microplate reader (355EX/460EM) for detection of NADPH fluorescence.
`COc1ccc2cc(CC3CCN([C@H]4CC[C@@H](O)CC4)C3=O)ccc2c1` (relative stereo) [Example 8, 1-(cis-4-Hydroxy-cyclohexyl)-3-(6-methoxy-naphthalen-2-ylmethyl)-pyrrolidin-2-one] gave an IC50 of 0.247 µM.
`O=C1C(Cc2ccc3ccccc3c2Br)CCN1C1CCCCC1` (stereo not shown) [Example 2, 3-(1-Bromo-naphthalen-2-ylmethyl)-1-cyclohexyl-pyrrolidin-2-one] showed an IC50 of 0.354 µM.
For `COc1ccc2cc(CC3CCN(C4CCCCC4)C3=O)ccc2c1` (stereo not shown) [Example 4, 1-Cyclohexyl-3-(6-methoxy-naphthalen-2-ylmethyl)-pyrrolidin-2-one], the IC50 was 0.134 µM.
For `COc1ccc2c(Cl)c(CC3CCN(C4CCCCC4)C3=O)ccc2c1` (stereo not shown) [Example 24, 3-((1-chloro-6-methoxynaphthalen-2-yl)methyl)-1-cyclohexylpyrrolidin-2-one], the IC50 was 0.213 µM.
For `COc1ccc2cc(CC3CCCN([C@H]4CC[C@H](O)CC4)C3=O)ccc2c1` (stereo partly shown) [Example 34], the IC50 was 0.353 µM.
Molecule `COc1ccc2ccccc2c1CC1CCCN(C2CCCCC2)C1=O` (stereo not shown) [Example 40, 1-Cyclohexyl-3-(2-methoxy-naphthalene-1-ylmethyl)-piperidin-2-one] has an IC50 of 0.423 µM.
Work on `O=C1C(Cc2ccc3cc(-c4c(Cl)cccc4Cl)ccc3c2)CCN1C1CCCCC1` (stereo not shown) [Example 44] yielded an IC50 of 0.344 µM.
